Test results published in patent US4342780A, “Method of depleting endogenous monoamines” (Merrell-Toraude et Cie, priority 1981, dated 1982).

Key:
[1] = test system: catecholamine levels (dopamine, noradrenaline); test: Effect of dopamine injection on catecholamine levels in heart and brain of mice treated with test compound (Table VI); type: in vivo, Male albino mice
Method: Saline solution is used as a control. The mice are sacrificed and the catecholamines, dopamine and noradrenaline, and serotonin (5-hydroxytryptamine) are determined by reverse-phase ion-pair high pressure liquid chromatography using electrochemical detection. […] Twelve hours after the second dose, one group of animals received an i.p. injection of 50 mg/kg of dopamine-HCl (Sigma, Chem. Co), the other group received saline instead. Three hours after the dopamine injection, the animals were killed and catecholamines were measured in heart and brain as described in Example 18.

AADC [2] = target: T1, AADC (Sus scrofa, UniProt P80041); test: In vitro AADC inhibition: time of 90% inactivation (14CO2 trapping, DL-[1-14C]-dopa substrate); type: biochemical, hog; parameters: key to RATING: ++++: The relative activities of the compounds are rated by the given number of "plus" signs; +++: The relative activities of the compounds are rated by the given number of "plus" signs; 0-+: The relative activities of the compounds are rated by the given number of "plus" signs; conditions: for TIME OF 90% INACTIVATION: pH 7.4, 37° C.; for RATING: relative activity
T1 sequence (P80041 1-486): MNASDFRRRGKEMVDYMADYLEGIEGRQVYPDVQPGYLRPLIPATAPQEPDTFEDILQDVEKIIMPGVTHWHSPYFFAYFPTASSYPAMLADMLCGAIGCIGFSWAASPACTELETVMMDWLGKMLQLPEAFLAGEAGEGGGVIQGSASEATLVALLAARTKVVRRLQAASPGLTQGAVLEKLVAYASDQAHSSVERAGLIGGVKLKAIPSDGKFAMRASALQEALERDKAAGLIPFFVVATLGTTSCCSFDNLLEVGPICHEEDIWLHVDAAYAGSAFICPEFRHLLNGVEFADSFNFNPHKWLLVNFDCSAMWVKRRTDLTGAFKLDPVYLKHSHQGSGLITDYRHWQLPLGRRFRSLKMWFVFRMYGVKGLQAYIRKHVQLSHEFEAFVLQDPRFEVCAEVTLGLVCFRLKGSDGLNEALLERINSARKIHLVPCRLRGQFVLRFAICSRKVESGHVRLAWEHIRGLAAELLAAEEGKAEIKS
Method: AADC can be purified from hog kidney by the general method of J. Christenson et al. Archs. Biochem. Biophys., 141, 356 (1970) and G. Lancaster et al., Can. J. Biochem., 50, 791 (1972), and the specific activity of the enzyme is determined by the ^14 CO2 trapping method using DL-[1-^14 C]-dopa as the substrate (see Christenson et al.). One unit of activity is defined as the total amount of enzyme which produces 1 n mol of CO2 per minute, with DL-[1-^14 C]-dopa as substrate.
To 100 μl of 50 mM-phosphate buffer pH 7.4 containing 100 mM-mercapto-ethanol are added 5 μl of an aqueous solution containing the test compound at the desired concentration and 50 μl of an aqueous solution containing 2 units of AADC. The mixture is incubated at 37° C. and 20 μl aliquots are removed at various times. The AADC activity remaining in each aliquot is measured by the CO2 trapping method of Christenson.
The relative activities of the compounds are rated by the given number of "plus" signs.

AADC [3] = test: Ex vivo AADC activity in organs of mice after repeated i.p. doses (Table II); parameters: species or system mice (Swiss Albino); conditions: three days, 12 h after 6th dose, vs control
Method: (§1) The test animals (e.g. mice or rats) are given the test compound in a suitable vehicle, either orally or by injection, each day over the period of time desired. The animals are kept on a constant time cycle, and body weights are measured daily. The animals are sacrificed by decapitation 12 to 24 hours after receiving the last dose of the test compound. Control animals receive the vehicle alone.
(§2) Immediately after death, the organs (brain, heart, and kidney) are removed and homogenized either in 50 ml phosphate buffer pH 6.8 for AADC determination or in ice-cold 0.4 M HClO4 containing 0.05% (w/v) EDTA and 0.1% (w/v) sodium bisulfite for catecholamine determination. AADC activity is determined by the ^14 CO2 trapping method of J. Christenson, supra (see Example 14) using DL-[1-^14 C]-dopa as the substrate. Catecholamines are determined by centrifuging the homogenate, adding the supernatant to alumina buffered to pH 8.0-8.4 to adsorb the catecholamines, re-extracting the catecholamines from the alumina with 0.2 M HClO4 and determining the catecholamines in the extracts using known procedures, such as by reversed-phase ion-pair HPLC with electrochemical detection.
(§3) Table II, shown below, sets forth the results obtained by testing particular compounds of Formula I in the above-described procedure in mice (Swiss Albino) after i.p. administration of the compound twice daily for three days: […]

[4] = test system: catecholamine content (norepinephrine, dopamine); test: Catecholamine content in organs of mice after repeated i.p. doses (Table II); type: in vivo, mice (Swiss Albino); conditions: three days, 12 h after 6th dose, vs control
Method: as §1, §2, §3

[5] = test system: catecholamine content (norepinephrine, dopamine); test: Catecholamine content in organs of rats after oral administration once daily for 15 days (Table III); type: in vivo, rats (Sprague-Dawley); conditions: 24 h after 15th dose, vs control; for % CHANGE Brain Dopamine: * not significant
Method: as §1, §2
Table III gives the results obtained by testing particular compounds of Formula I in rats (Sprague-Dawley) after oral administration of the test compound once daily for 15 days. AADC activity was not determined.

AADC [6] = test: AADC inhibition in organs of fasted rats after a single dose; type: in vivo; conditions: 16 h
Method: as §1, §2
(§4) In the brain, doses of 10 mg/kg and 200 mg/kg produced a 10% reduction and a 70-80% reduction of AADC activity, respectively. […] In the heart, no reduction of norepinephrine is noted up to a dose of 200 mg/kg. When tested after multiple administration of 10, 25, or 50 mg/kg given daily for six days in rats sacrificed 24 hours after the sixth dose, the compound produced a 50% decrease in brain norephinephrine at a dose of 10 mg/kg (daily). […] Serotonin (5-HT) levels, as assessed by standard techniques, are not altered in the brain even at the highest dose tested. Heart norepinephrine is reduced by only 20% at the highest dose.

[7] = test system: catecholamine levels (norepinephrine, dopamine); test: Catecholamine levels in organs of fasted rats after a single dose; type: in vivo; conditions: 16 h
Method: as §1, §2, §4

[8] = test system: catecholamine levels (norepinephrine, dopamine) and serotonin (5-HT); test: Catecholamine and serotonin levels in organs of rats after daily doses for six days; type: in vivo
Method: as §1, §2, §4

[9] = test system: endogenous catecholamine and 5-HT levels; test: Effect on endogenous catecholamine and 5-HT levels in brain and heart (general statement); type: in vivo
[10] = 10 mg/kg i.p. twice daily, * not significant
[11] = 10 mg/kg i.p. twice daily, * not significant (-25*, -7*)
[12] = 10 mg/kg i.p. twice daily, * not significant (-25*, -9*)
[13] = 100 mg/kg i.p. twice daily, * not significant (-35*)
[14] = 10 mg/kg oral once daily 15 days
[15] = 20 mg/kg oral once daily 15 days
[16] = 30 mg/kg oral once daily 15 days

SMILES | TIME OF 90% INACTIVATION (AADC [2]; CONC. 10 μM) | RATING (AADC [2]; CONC. 10 μM) | % CHANGE AADC Brain (AADC [3]; 10 mg/kg i.p. twice daily) | % CHANGE AADC Kidney (AADC [3]; 10 mg/kg i.p. twice daily) | % CHANGE AADC Brain (AADC [3]; 100 mg/kg i.p. twice daily) | % CHANGE AADC Kidney (AADC [3]; 100 mg/kg i.p. twice daily) | % CHANGE NOREPINEPHRINE Brain [4, 10] | % CHANGE NOREPINEPHRINE Heart [4, 11] | % CHANGE DOPAMINE Brain [4, 12] | % CHANGE NOREPINEPHRINE Brain ([4]; 100 mg/kg i.p. twice daily) | % CHANGE NOREPINEPHRINE Heart ([4]; 100 mg/kg i.p. twice daily) | % CHANGE DOPAMINE Brain [4, 13] | % CHANGE Brain Norepinephrine [5, 14] | % CHANGE Heart Norepinephrine [5, 14] | % CHANGE Brain Dopamine [5, 14] | % CHANGE Brain Norepinephrine [5, 15] | % CHANGE Heart Norepinephrine [5, 15] | % CHANGE Brain Dopamine [5, 15] | % CHANGE Brain Norepinephrine [5, 16] | % CHANGE Heart Norepinephrine [5, 16] | other results
NCCc1ccc(O)c(O)c1 [dopamine, reference compound] | – | – | – | – | – | – | – | – | – | – | – | – | – | – | – | – | – | – | – | – | depletion of noradrenaline in the heart achieved by the test-compound ([1]; effect of dopamine injection 50 mg/kg i.p.): reversed totally; depletion of amines in the central nervous system ([1]; effect of exogenous dopamine 50 mg/kg i.p.): not affected
NC(CF)(Cc1cccc(O)c1O)C(=O)O (centres unmarked) [2,3-diOH-phenyl, 2-Amino-2-fluoromethyl-3-(2,3-dihydroxyphenyl)propionic acid] | 1 to 2 min | ++++ | -73% | -90% | -99% | -90% | -33% | -33% | -25% | -90% | -90% | -93% | -11% | -38% | 0% | -17% | -48% | +3% | -27% | -79% | % CHANGE Brain Dopamine [5, 16]: -10%
NC(CF)(Cc1cc(O)ccc1O)C(=O)O (centres unmarked) [2,5-diOH-phenyl, 2-Amino-2-fluoromethyl-3-(2,5-dihydroxyphenyl)propionic acid] | 3 min | ++++ | -58% | -78% | -99% | -87% | 0% | -25% | 0% | -90% | -76% | 90% | -16% | -31% | -1% | -32% | -38% | -2% | -37% | -53% | % CHANGE Brain Dopamine [5, 16]: -5%
NC(CF)(Cc1cccc(O)c1)C(=O)O (centres unmarked) [Example 3-OH-phenyl, 2-Amino-2-fluoromethyl-3-(3-hydroxyphenyl)propionic acid] | – | – | -80% | -78% | -95% | -96% | -34% | 0% | 0% | -77% | -49% | -75% | – | – | – | – | – | – | – | – | TIME OF 90% INACTIVATION (AADC [2]; CONC. 100 μM): 4 min; RATING (AADC [2]; CONC. 100 μM): +++
COC(=O)C(N)(CF)Cc1ccc(O)cc1 (centres unmarked) [Methyl 2-amino-2-fluoromethyl-3-(4-hydroxyphenyl)propionate] | – | – | – | – | – | – | – | – | – | – | – | – | – | – | – | – | – | – | – | – | reduction of AADC activity in the brain (AADC [6]; 10 mg/kg single dose): 10%; AADC activity in kidney, liver, and adrenals (AADC [6]; 50 mg/kg single dose): marked decrease; AADC inhibition in kidney, liver, and adrenals (AADC [6]; 100 mg/kg single dose): Complete inhibition; reduction of AADC activity in the brain (AADC [6]; 200 mg/kg single dose): 70-80%; AADC activity in the heart (AADC [6]; up to 200 mg/kg single dose): not reduced significantly; Brain norepinephrine decrease ([7]; 10 mg/kg single dose): 15-20%; dopamine decrease (brain) ([7]; 50 mg/kg single dose): decreased significantly; Brain norepinephrine decrease ([7]; 200 mg/kg single dose): 50%; dopamine decrease (brain) ([7]; 200 mg/kg single dose): 75%; reduction of norepinephrine in the heart ([7]; up to 200 mg/kg single dose): no reduction; decrease in brain norepinephrine ([8]; 10 mg/kg daily for six days, 24 h after sixth dose): 50%; Brain dopamine decrease ([8]; 50 mg/kg daily for six days, 24 h after sixth dose): 50%; decrease in brain norepinephrine, response at higher doses ([8]; 25 or 50 mg/kg daily for six days (above 10 mg/kg), 24 h after sixth dose): do not give an additional response; Brain dopamine, effect at lower doses ([8]; below 50 mg/kg (10, 25) daily for six days, 24 h after sixth dose): no significant effect; Serotonin (5-HT) levels in the brain ([8]; even at the highest dose tested, daily for six days): not altered; Heart norepinephrine reduction ([8]; highest dose (50 mg/kg) daily for six days, 24 h after sixth dose): 20%; endogenous 5-HT levels in the brain [9]: not altered; endogenous catecholamine levels in brain and heart [9]: lower engenous catecholamine levels in the brain but not in the heart
